The target of this data set is ATP-dependent translocase ABCB1 (Homo sapiens, UniProt P08183). The data set can be described thus: TP_TRANSPORTER: increase in Daunomycin intracellular accumulation (Daunomycin: 10 uM, Rapamycin: 5 uM) in CEM/VBL 250 cells. Particulars: cem/vbl 250, 5 µM. The class given is functional, cell-based.
ATP-dependent translocase ABCB1, sequence (P08183 whole entry): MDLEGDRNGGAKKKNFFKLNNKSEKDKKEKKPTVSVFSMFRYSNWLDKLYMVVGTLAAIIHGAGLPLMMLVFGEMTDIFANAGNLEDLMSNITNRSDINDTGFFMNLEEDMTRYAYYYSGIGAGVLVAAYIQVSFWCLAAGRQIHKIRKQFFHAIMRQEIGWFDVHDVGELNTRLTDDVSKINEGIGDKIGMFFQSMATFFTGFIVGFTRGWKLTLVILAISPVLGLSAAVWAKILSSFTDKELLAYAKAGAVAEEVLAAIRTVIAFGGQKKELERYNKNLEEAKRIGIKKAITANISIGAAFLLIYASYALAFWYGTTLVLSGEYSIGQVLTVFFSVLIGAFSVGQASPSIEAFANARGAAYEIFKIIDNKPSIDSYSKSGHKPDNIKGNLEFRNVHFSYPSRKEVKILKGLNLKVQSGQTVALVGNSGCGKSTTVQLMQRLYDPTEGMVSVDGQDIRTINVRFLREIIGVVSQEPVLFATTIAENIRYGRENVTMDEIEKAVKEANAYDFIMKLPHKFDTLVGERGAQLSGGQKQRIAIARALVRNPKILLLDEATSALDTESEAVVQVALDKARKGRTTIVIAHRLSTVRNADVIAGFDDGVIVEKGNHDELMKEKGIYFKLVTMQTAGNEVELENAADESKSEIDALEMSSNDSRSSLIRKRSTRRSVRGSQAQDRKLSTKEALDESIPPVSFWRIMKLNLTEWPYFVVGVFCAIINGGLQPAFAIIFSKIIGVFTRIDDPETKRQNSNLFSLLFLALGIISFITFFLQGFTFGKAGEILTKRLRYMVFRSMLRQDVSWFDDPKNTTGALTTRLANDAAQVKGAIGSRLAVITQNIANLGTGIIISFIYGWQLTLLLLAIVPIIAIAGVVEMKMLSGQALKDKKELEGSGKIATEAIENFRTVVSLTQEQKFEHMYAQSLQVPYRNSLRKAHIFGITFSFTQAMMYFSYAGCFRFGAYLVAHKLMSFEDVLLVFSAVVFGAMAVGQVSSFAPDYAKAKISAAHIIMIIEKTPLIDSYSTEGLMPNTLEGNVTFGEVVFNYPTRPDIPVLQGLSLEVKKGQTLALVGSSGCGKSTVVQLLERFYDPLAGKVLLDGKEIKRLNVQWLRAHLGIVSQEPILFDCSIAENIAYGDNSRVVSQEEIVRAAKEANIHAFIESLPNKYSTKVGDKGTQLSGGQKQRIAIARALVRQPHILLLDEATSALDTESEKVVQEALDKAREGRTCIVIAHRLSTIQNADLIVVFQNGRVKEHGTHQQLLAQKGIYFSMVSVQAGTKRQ

With `CO[C@H]1C[C@@H]2CC[C@@H](C)[C@@](O)(O2)C(=O)C(=O)N2CCCC[C@H]2C(=O)O[C@H]([C@H](C)C[C@@H]2CC[C@@H](O)[C@H](OC)C2)CC(=O)[C@H](C)/C=C(\C)[C@@H](O)[C@@H](OC)C(=O)[C@H](C)C[C@H](C)/C=C/C=C/C=C/1C` [SIROLIMUS], the Activity entry was “inhibitor [(at a rough estimate) 7-fold]”.

Source of the values: ChEMBL document CHEMBL2074350, “Immunosuppressants FK506 and rapamycin function as reversal agents of the multidrug resistance phenotype” (Blood, 1992).
